From a melting point compilation (Tetko et al.; mined from patent text by program, amines drawn as free bases though some values may be those of a salt) come the findings set out here.

On to `O=C(O)C(=O)CC(=O)c1ccn(Cc2ccccc2)c1`, for which the melting point – broadly, the temperature, or range, at which the solid turns liquid – fell in the range of 151 to 152 °C.
Under `C=CC(C)(C)C(O)(COc1ccc(-c2ccccc2)cc1)Cn1cnnc1` (stereo unspecified) stands 171 to 173 °C; under `CCCCc1nn(-c2cccc(NC(=O)CC)c2)c(=O)n1Cc1ccc(-c2ccccc2S(=O)(=O)NC(=O)c2ccccc2Cl)cc1`, 105 to 107 °C; under `O=C(Cc1ccc(-c2ccccc2)cc1)NCCc1ccc(OCc2ccccc2)c(OCc2ccccc2)c1`, 142 to 144 °C.
In the case of `Cc1c(S(=O)(=O)c2ccc(Cl)cc2)csc1-c1nc(-c2c(F)cccc2F)nn1C` it was 183 to 185 °C.
Under `CCOC(=O)NNc1cc(C)c(-c2cccc([N+](=O)[O-])c2)nn1` stands 186 to 187 °C; under `COC(=O)C1=C(C)NC(C)=C(C(=O)OC)C1c1cc([N+](=O)[O-])ccc1OCCCCNCC(O)COc1ccc(OC)cc1` (stereo unspecified), 154 to 155 °C; under `COC(=O)c1cn(S(=O)(=O)c2ccc(C)cc2)c(C)c1C`, 108 to 114 °C.
In the case of `CC1=CC(c2cccc([N+](=O)[O-])c2)C2=C(CCCC2=O)N1` (stereo unspecified), the melting point was in the range of 183 to 185 °C.
The molecule `CC1(c2cc(NC(=O)c3ccc(Cl)cn3)ccc2F)N=C(N)COCC1(F)F` (stereo unspecified) showed a melting point of 190 to 193 °C.
Under `O=C(C=Cc1ccc(OCc2ccccc2)c([N+](=O)[O-])c1)N1CCCCC1` stands 155 to 156 °C; under `O=C(Cn1nc(-c2ccccc2O)nc1-c1ccccc1O)NC(CO)CO`, 212 to 214 °C; under `CCCCCCCCCCCCOc1ccc(O)c(C(=O)NNC(=O)c2ccccc2O)c1`, 244 °C.
Under `COc1ccc2ccc(OS(=O)(=O)C(F)(F)F)c(-c3nnc(Cl)c4ccccc34)c2c1` stands 140 °C.
In the case of `Oc1onc(CCCc2cccc(OCc3ccccc3)c2)c1C(c1ccccc1)c1ccccc1` it was 89 to 90.5 °C; in that of `Cc1cc(Oc2ccc(Cl)c(C(F)(F)F)c2)c(C)cc1N=CNC#N`, 111 to 114 °C; in that of `O=c1ccc2c(O)cccc2o1`, 224 to 225 °C.
On to `NC(=O)c1ccc2cc(O)ccc2c1`, for which the melting point was 205 to 206 °C.
Under `CN1C(=O)CC[C@]2(C)c3ccc(CCc4ccc5ccccc5c4)cc3CC[C@@H]12` stands 109 to 110 °C.
`Cc1cccc2[nH]c(Nc3ccc(C(=O)O)cc3)nc12` gave a melting point of 375 to 378 °C.
Under `CC(C)CCCC(C)C1CCC2C3CC=C4CC(Br)CCC4(C)C3CCC12C` (stereo unspecified) stands 99.5 to 100 °C; under `N#CCC(=O)c1nn(-c2ccccc2)c2c1COc1c(CN3CCOCC3)cc(F)cc1-2`, 187 to 189 °C; under `O=c1cccccc1N1CCN(Cc2ccccc2)CC1`, 78 to 80 °C.
In the case of `COc1ccc(C2(C#Cc3cccc(-c4noc(C(F)(F)F)n4)c3)CCCC(=O)C2)cc1OC1CCCC1` (stereo unspecified) it was 99 to 100 °C; in that of `CC(=CC(=O)c1cccc(C(F)(F)F)c1)N(C)C`, 69 to 70 °C.
Under `O=C(O)c1c2c(nc3ccc(F)cc13)-c1ccc(-c3ccccc3)cc1CC2` stands 309 to 310 °C; under `Cc1c(C(C)CC(=O)O)n(Cc2ccc(Cl)cc2)c2ccc(O)cc12` (stereo unspecified), 162 °C; under `Cn1c(C(F)(F)F)nc(-c2ccc(F)cc2)c1-c1ccc(S(C)(=O)=O)cc1`, 187 to 189 °C.
Molecule `COC(=O)c1ccc(S(=O)(=O)N2CC[C@H](O)C2)n1C` returned a melting point of 108 to 109 °C.
`Nc1cc(F)c(Sc2ccc(C(F)(F)F)cc2Cl)cc1F`: the melting point came out at 95.9 °C.
Under `C(=C1CSCC2=C1N=C1SCCN1C2c1ccccc1)c1ccccc1` (stereo unspecified) stands 195 to 196 °C; under `CC(C)(C)c1ccc(-c2ccc3c(-c4ccc(C(C)(C)C)cc4)cc4c5cc(-c6ccc(C(C)(C)C)cc6)ccc5c(-c5ccc(C(C)(C)C)cc5)cc4c3c2)cc1`, 376 °C.
In the case of `Oc1ccc2c(-c3ccccc3)coc2c1` it was 138 to 143 °C; in that of `c1nc(Nc2ccc3[nH]ccc3c2)c2sc(-c3ccc(CNCCN4CCNCC4)cc3)cc2n1`, 178 to 191 °C; in that of `O=C(O)CCCCCCCC(=O)CC(O)C(=O)C=Cc1ccccc1` (stereo unspecified), 81.5 to 83 °C.
Under `O=C1CCC(=O)N1c1cccc(OCc2nc3ccccc3s2)c1` stands 175 to 176 °C; under `O=Cc1ccc(-c2ccc(C(=O)O)cc2)c([N+](=O)[O-])c1`, 227 to 235 °C; under `CC1(C)C(=O)N(c2ccc(C#N)c(C(F)(F)F)c2)C(=O)N1CC1CC1CN1C(=O)N(c2ccc(C#N)c(C(F)(F)F)c2)C(=O)C1(C)C` (stereo unspecified), 178 to 180 °C.
In turn, `CC(=O)Oc1ccc2c(c1Cl)Sc1ccccc1N2` came in with a melting point of 173 °C.
In the case of `CCCc1cc2cc(OCC(=O)OCC)c(Cl)c(Cl)c2s1` it was 62 to 63 °C; in that of `C[C@@H]1O[C@](C#CC2CC2)(C(F)(F)F)c2cc(Cl)ccc2NC1=O`, 145 to 146 °C; in that of `CCOC1=NC(N)=C(C(=O)OC)C(c2cccc(Cl)c2)C1C(=O)OC` (stereo unspecified), 158 °C.
Under `O=C1c2cccc(SCCCCCCO)c2C(=O)c2cccc(SCCCCCCO)c21` stands 195 to 196 °C; under `COc1ccc(CN2C(=O)[C@@H](NC(=O)Cc3ccccc3)[C@H]2COS(=O)(=O)c2ccc(C)cc2)c(OC)c1` (relative stereo), 109 to 110 °C; under `O=C(CC1CC2CCC1C2)NCC1CCN(c2ncccn2)CC1` (stereo unspecified), 121 to 126 °C.
Regarding `O=C(c1ccc(Cl)cc1)C1(Oc2ccc(Cl)cc2)CC1`, the melting point lay in the range of 69 to 71 °C.
Molecule `CCOC(=O)CCCN(C(=O)CC)C(c1ccccc1)c1ccccc1` gave a melting point of 83 to 85 °C.
Regarding `CCCCCCCc1cnc(N)s1`, the melting point is 75 to 76 °C.
In the case of `Cc1coc(NC(=O)CCCCl)n1` it was 98 °C; in that of `NCc1cc(Cl)c(N=C2NCCN2)c(Cl)c1`, 205 to 206 °C.
Under `O=c1c2c(n(-c3ccccc3)c3ccccc13)OCC2` stands 220 to 221 °C.
Under `CC(c1ccc(-c2ccccc2)c(F)c1)c1nc(CC#N)no1` (stereo unspecified) stands 111 to 112 °C.
Regarding `CCCOc1cc(NC(=O)NC(C)C)ccn1`, the melting point was in the range of 77 to 79 °C.
The molecule `CC12OCC(CO)(CO1)CO2` registered a melting point of 110 to 112 °C.
Under `COc1ccc(S(=O)(=O)N2CCc3cccc(-c4ccc(C=CC(=O)NO)cc4)c32)cc1` stands 200 to 201 °C; under `COc1cc(C)ccc1S(=O)(=O)NC(=O)C(c1cc(OC)c2c(c1)OCO2)c1cn(C)c2cc(CO)ccc12` (stereo unspecified), 145 to 147 °C; under `COc1cc(CO)ccc1OCc1nc(-c2ccccc2)sc1C`, 134 to 135 °C.
In the case of `COC1(c2ccc(C=Cc3cc(F)cc(F)c3NC(=O)C(C)(C)C)cc2)CCOCC1` it was 77 to 79 °C; in that of `CCOC(=O)c1cccn2cc(C(C)(C)C)nc12`, 72 to 74 °C; in that of `CCCC1=NN(c2ccc(S(=O)(=O)NC(C)(C)C)cc2)C(=O)C1=CNc1ccccc1OCC`, 254 °C.
Under `Nc1cccc(C2=NCCO2)c1` stands 126 to 128 °C; under `CCCc1[nH]nc2c1C(=O)c1c(NC(N)=O)cccc1-2`, 187 to 189 °C; under `C=Cn1cc(C(=O)O)c(=O)c2cc(F)c(N3CCC(N)C3)nc21` (stereo unspecified), 253 to 257 °C.
In turn, `O=S(=O)(Nc1ccc2c(OCc3nc(-c4ccc(F)cc4)sc3Br)cccc2c1)C(F)(F)F` had a melting point of 139 to 140 °C.
Under `COc1cccc2c1OC(CN1CC=C(c3c[nH]c4ncccc34)CC1)CO2` (stereo unspecified) stands 207 to 210 °C; under `Nc1nc2n(n1)Cc1ccccc1-2`, 193 to 194 °C; under `CCCc1c(OCCCC(=O)NCCCCc2cccnc2)ccc(C(C)=O)c1O`, 80 to 82 °C.
In the case of `COc1ccccc1-c1ccc(C(=O)N2Cc3ccc(C(=O)NC(CO)c4ccccc4)n3Cc3ccccc32)cc1` (stereo unspecified) it was 195 to 196 °C; in that of `CCCSc1sc(C(=O)OCC)c2c1-c1nc(-c3ccccc3)sc1CC2`, 125 to 126 °C.
In the case of `O=[N+]([O-])c1ccc(C#Cc2ccccc2)c(-c2cc([N+](=O)[O-])ccc2C#Cc2ccccc2)c1` it was 216 to 218 °C; in that of `O=c1c(Cl)c(Cl)cnn1[C@@H]1C[C@H](O)[C@@H](O)[C@H]1O` (racemic), 163 °C; in that of `CN(C)C(=N)CCCCCCCCCCCCC(=N)N(C)C`, 209 °C.
Molecule `CC(C)(C)C(=O)C=C(c1ccccc1)n1cncn1` gave a melting point of 70 to 73 °C.
Regarding `O=Cc1cc(Oc2ccc(C(F)(F)F)cc2Cl)ccc1[N+](=O)[O-]`, the melting point was determined as 95 °C.
In turn, `N#CC=C1CCN(c2ccc(N3C[C@H](CNC(=O)C(Cl)Cl)OC3=O)cc2F)CC1` displayed a melting point of 159 to 161 °C.
Under `O=C1NCCc2c(-c3cccc(Cl)c3)[nH]c3cccc1c23` stands 147 to 149 °C.
Under `CCCCCCCCCCCCON(Cc1ccccc1)C(c1ccccc1)P(=O)(OCCCCCCCCCCCC)OCCCCCCCCCCCC` (stereo unspecified) stands 38 to 40 °C; under `CCc1nc(N)nc(N)c1-c1cccc(Cl)c1Cl`, 228 to 230 °C; under `COc1ccc(-c2cc(C(=O)O)sc2-c2ccc(F)cc2)cc1`, 204 to 206 °C.
In the case of `Cc1c2c(nc3ccccc13)CCN(C(=N)N)CC2` it was 140 °C; in that of `O=C1N(Cc2ccc(C(F)F)o2)c2ccccc2C12COc1cc3c(cc12)OCCO3` (stereo unspecified), 173 to 175 °C; in that of `COc1ccc2nc(CO)n(C)c2n1`, 138 to 140 °C.
In turn, `O=[N+]([O-])c1ccccc1Nc1cccc(Nc2ccc(C(F)(F)F)cc2[N+](=O)[O-])c1` showed a melting point of 95 to 98 °C.
Under `O=[N+]([O-])C1NC=CN1c1ccncc1` (stereo unspecified) stands 234 °C; under `CCOC(=O)c1cc(NC(=O)C2=C(CC)OCCS2)ccc1Cl`, 86 to 88 °C; under `CCc1cc2c(cc1CC)C(=O)CCC2`, 93 °C.
